# What was measured:
# [1] = tested on: wild-type, Fanca−/−, Fancc−/− and Fanca−/−c−/− cells; experiment: RAD51 focus formation in wild-type and FA fibroblasts; assay type: cell-based, mouse; settings: 48 hours exposure
# Method: The percentage of cells with >5 foci per cell was quantified.
# (§1) ES cells were cultured for 48 h in various concentrations of PARP inhibitor fixed in 4% paraformaldehyde in PBS and permeabilised with 0.2% Triton X100 in PBS. Cells were stained with a 1:100 dilution of rabbit anti-Rad51 ployclonal antibody (Ab 551922, BD-Pharmingen, Oxford, UK). After washing, the primary antibody was visualised with Alexa Fluor-555 goat anti-rabbit IgG (Alexa) and nuclei with TO-PRO-3 iodide (Molecular Probes). Rad51 foci and γH2Ax foci were visualised with and quantified using a Leica TCS-SP2 confocal microscope.
# wild-type ES cells = experiment: Rad51 focus formation, wild-type ES cells; assay type: cell-based, mouse; settings: 48 hours
# Method: as §1
# (§2) Wild-type, and Brca1 and Brca2 defective ES cells were exposed to differing concentrations of KU0058684 for 48 hours. Cells were then fixed and stained for RAD51 foci as described by Tarsounas (Tarsounas M et al Oncogene. 2003 22(8): 1115-23).
# [2] = tested on: Fancd2−/−, Fanca−/−, Fancc−/− and Fanca−/−c−/− fibroblasts; experiment: Clonogenic survival, Fanconi anaemia mouse fibroblasts; assay type: cell-based; settings: continuous exposure 12-14 days
# Method: Mouse fibroblasts from wild-type, Fancd2^−/−, Fanca^−/−, Fancc^−/− and Fanca^−/−c^−/− animals were obtained from the Fanconi Anaemia Cell Repository, Oregon Health and Science University. These cells were maintained in DMEM, supplemented with FCS (10% v/v), glutamine and antibiotics. RAD54 and RAD52 Embryonic Stem (ES) cells were grown in DMEM, supplemented with FCS (15% v/v), glutamine, antibiotics, non-essential amino acids, 2-mercaptoethanol and Leukemia inhibitory Factor. HeLa cells (CCL-2) were obtained from ATCC (USA) and were maintained in DMEM, supplemented with FCS (10% v/v), glutamine and antibiotics.
# For measurement of sensitivity to chemical inhibitors, cell cultures e.g. ES cells or mouse embryonic fibroblasts, in exponential growth were trypsinised and seeded at various densities in 6-well plates onto confluent monolayer of Mitomycin C (MMC) inactivated mouse embryonic fibroblasts and, where appropriate, treated with inhibitors after 18 h. For continuous exposure, cells were re-fed every 4 days with fresh medium and inhibitor. For timed exposures, inhibitor was added for the specified period then cells were washed and re-fed with fresh medium. After 10-14 days, cells were washed with PBS, fixed in methanol and stained with crystal violet. Colonies containing greater than approximately 50 cells were counted. Experiments were performed at least three times in triplicate.
# vault PARP = vault PARP (Homo sapiens, UniProt Q9UKK3); experiment: Selectivity: vault PARP inhibition; assay type: biochemical; settings: at concentrations up to 1 μM
# [3] = tested on: Brca1 or Brca2 deficient cells; experiment: Rad51 focus formation, Brca1 or Brca2 deficient ES cells; assay type: cell-based, mouse; settings: 48 hours
# Method: as §1, §2
# [4] = tested on: Brca2 deficient ES cell derived tumours; experiment: ES cell xenografts (teratomas) in athymic BALB/c nude mice; assay type: in vivo, mouse; settings: 15 mg/kg intraperitoneal, two doses per day
# Method: ES cell derived tumours (teratomas) were produced by subcutaneous injection of […] ES cells into 6-8 week athymic BALB/c nude (nu/nu) mice. Twenty mice were injected with Brca2 deficient ES cells and an identical cohort with isogenic wild type cells. Two days after cell injection, treatment with KU0058684 or vehicle was initiated. For three consecutive days, two Intraperitoneal doses of KU0058684 (or vehicle) were administered, six hour apart, each at a dosage of 15 mg/kg animal. This treatment was then stopped for five days and then reinitiated (as before) for another three consecutive days. Growth of tumours was monitored from a minimum volume of 0.3 cm^3. The data in FIG. 16 represents two separate experiments involving in total 40 animals.
# [5] = tested on: wild-type, Fanca−/−, Fancc−/− and Fanca−/−c−/− cells; experiment: γH2AX foci formation in wild-type and FA fibroblasts; assay type: cell-based, mouse; settings: 48 hours exposure
# [6] = tested on: Brca2 deficient VC8 cells; experiment: Neutral comet assay, Brca2 deficient VC8 cells; assay type: cell-based, chinese hamster; settings: 30-hour exposure to 1 μM
# Method: (§3) VC8 and VC8-BAC cells were plated 24 hours prior to treatment with 1 μM KU0058684 for 30 hours. All further work was carried out in the dark. Cells were washed with and scraped into PBS prior to Comet analysis as described (Lemay and Wood, 1999). Cells suspended in LMP agarose (0.5% in PBS) were spread onto Comet slides (Trevigen, Gaithersburg) and placed at 4 C until set, prior to lysis for 45 mins in 2.5M NaCl, 100 mM EDTA, 10 mM Tris Base, 1% sodium lauryl sarcosinate, 0.01% Triton X-100. Slides were transferred to TBE for 5 mins prior to electrophoresis at 18V for 15 mins. Slides were then fixed in 100% ethanol for 5 mins and air dried before the addition of SYBR green dye and visualisation by epifluorescence using fluorescien filters (Nikon). Comets were analysed using the Comet software module of the Lucia G imaging package as supplied by Nikon. 50 comets per data point were examined for each of three independent experiments and the mean tail moment calculated.
# HeLa cells = experiment: Cell viability, HeLa cells exposed to PARP inhibitor and caffeine; settings: 1 mM Caffeine plus KU0058684
# Excerpt: Error bars represent standard errors of the mean.
# Caffiene was used to determine whether loss of ATM and ATR dependent DNA signalling pathways would induce sensitivity to PARP inhibition.
# [7] = tested on: pSUPER-CFP-CONTROL transfected HeLa cells; experiment: Clonogenic survival, control transfected HeLa cells; assay type: cell-based, human; settings: constant exposure 12-14 days, read-out: SF50 (the source's name)
# Excerpt: Clonogenic survival curves of transfected HeLa cells under constant exposure to a range of concentrations of PARP inhibitor (KU0058684) for 12-14 days. […] SF50 for pSUPER-CFP-CONTROL transfected cells is >1×10^−5 M and is 1×10^−6 M for pSUPER-CFP-17/19/23 transfected cells.
# HeLa cells were transfected using FuGene (Roche, USA) according to the manufacturers instructions. For clonogenic survival assays, cells were co-transfected in 6 well plates with pSUPER and a vector expressing blasticidin resistance (pEF-Bsd, Invitrogen, USA) at a ratio of 10:1 (pSUPER: pEF-Bsd). Twenty-four hours after transfection, cells were plated into replica plates and this was followed by treatment with PARP inhibitors and blasticidin 48 hours post transfection.
# VC8-BAC cells = experiment: Neutral comet assay, complemented VC8-BAC line; assay type: cell-based, chinese hamster; settings: 30-hour exposure to 1 μM
# Method: as §3
# PARP-2 = PARP-2 (Homo sapiens, UniProt Q9UGN5); experiment: Inhibition of poly(ADP-ribose) polymerase activity of PARP-2; assay type: biochemical
# Chain of PARP-2 (Q9UGN5 whole entry): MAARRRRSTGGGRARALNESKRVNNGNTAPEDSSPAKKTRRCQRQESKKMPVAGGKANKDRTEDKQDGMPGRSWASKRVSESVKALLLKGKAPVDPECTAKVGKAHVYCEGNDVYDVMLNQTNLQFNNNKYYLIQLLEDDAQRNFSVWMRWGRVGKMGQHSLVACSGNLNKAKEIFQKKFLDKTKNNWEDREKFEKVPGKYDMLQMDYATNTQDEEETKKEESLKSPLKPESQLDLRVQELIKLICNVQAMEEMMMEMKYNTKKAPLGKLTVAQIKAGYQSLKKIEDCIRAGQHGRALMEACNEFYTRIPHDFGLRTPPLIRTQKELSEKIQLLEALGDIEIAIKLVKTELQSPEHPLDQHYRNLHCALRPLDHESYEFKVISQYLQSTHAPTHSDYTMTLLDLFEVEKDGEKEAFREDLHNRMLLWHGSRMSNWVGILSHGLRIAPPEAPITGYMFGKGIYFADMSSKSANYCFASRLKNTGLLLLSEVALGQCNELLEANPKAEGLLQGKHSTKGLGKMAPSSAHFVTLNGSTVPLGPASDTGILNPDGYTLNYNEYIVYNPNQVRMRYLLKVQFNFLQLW
# Chain of vault PARP (Q9UKK3 whole entry): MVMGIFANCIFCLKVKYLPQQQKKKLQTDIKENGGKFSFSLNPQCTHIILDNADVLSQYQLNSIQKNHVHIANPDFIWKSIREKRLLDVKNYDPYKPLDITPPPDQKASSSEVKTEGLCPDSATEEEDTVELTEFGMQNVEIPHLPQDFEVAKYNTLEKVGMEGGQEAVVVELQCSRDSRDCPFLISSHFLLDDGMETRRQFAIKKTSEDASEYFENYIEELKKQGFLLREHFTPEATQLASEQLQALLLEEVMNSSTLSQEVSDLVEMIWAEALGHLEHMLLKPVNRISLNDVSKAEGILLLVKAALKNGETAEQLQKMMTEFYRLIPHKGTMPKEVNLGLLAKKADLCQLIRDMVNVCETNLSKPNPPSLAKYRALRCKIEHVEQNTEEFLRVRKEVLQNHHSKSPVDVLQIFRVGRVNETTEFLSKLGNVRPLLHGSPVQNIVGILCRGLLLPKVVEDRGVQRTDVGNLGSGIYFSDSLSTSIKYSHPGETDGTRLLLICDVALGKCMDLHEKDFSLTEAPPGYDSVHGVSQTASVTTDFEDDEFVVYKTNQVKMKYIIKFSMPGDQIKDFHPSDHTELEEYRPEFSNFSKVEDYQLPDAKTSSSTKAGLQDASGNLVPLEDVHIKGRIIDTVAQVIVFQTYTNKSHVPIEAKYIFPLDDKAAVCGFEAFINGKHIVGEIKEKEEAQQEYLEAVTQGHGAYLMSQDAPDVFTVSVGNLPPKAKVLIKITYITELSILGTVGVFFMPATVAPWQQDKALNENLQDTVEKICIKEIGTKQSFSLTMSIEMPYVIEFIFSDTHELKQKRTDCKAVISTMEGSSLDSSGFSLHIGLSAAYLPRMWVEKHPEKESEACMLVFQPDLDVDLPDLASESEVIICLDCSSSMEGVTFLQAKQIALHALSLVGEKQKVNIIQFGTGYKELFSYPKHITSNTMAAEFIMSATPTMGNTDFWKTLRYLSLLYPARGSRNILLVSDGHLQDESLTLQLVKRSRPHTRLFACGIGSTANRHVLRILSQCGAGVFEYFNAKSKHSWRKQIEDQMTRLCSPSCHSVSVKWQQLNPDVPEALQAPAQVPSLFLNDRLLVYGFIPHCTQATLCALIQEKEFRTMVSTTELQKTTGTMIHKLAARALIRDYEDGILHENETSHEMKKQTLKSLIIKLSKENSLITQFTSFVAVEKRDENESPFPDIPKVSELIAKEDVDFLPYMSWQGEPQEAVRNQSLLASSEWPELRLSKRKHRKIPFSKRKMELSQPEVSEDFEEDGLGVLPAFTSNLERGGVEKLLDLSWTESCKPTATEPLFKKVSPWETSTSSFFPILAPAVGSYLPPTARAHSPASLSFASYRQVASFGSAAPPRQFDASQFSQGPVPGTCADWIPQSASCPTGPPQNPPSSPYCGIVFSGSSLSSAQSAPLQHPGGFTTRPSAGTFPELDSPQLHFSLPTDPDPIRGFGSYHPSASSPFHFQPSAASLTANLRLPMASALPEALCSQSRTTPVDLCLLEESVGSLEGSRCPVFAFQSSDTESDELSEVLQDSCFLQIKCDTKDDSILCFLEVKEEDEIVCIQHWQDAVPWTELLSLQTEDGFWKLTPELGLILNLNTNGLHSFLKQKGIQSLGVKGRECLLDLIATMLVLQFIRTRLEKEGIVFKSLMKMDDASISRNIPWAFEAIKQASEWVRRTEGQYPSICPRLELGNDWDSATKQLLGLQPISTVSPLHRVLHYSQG
smiles,measurement,setting,value
O=C1CCC(=O)N1c1cc(Cc2n[nH]c(=O)c3ccccc23)ccc1F [KU0058684],RAD51 focus formation,[1],Induction of RAD51 focus formation
same,Rad51 foci formation,wild-type ES cells,caused Rad51 foci formation in a dose-dependent fashion
same,sensitivity of FA gene deficient fibroblasts compared to wild-type cells,[2],results in sensitivity
same,inhibition of vault PARP,vault PARP,do not inhibit
same,Rad51 foci formation,[3],no foci were induced
same,growth of Brca2 deficient tumours relative to wild-type tumours,[4],dramatically reduce the growth
same,γH2AX foci,[5],induction of γH2AX foci in all cells
same,increase in the tail moment,[6],4.7 fold
same,sensitivity of HeLa cells to PARP inhibitor with caffeine,HeLa cells,increased sensitivity
same,IC50,[7],> 10 µM
same,increase in tail moment,VC8-BAC cells,no significant increase
same,inhibition of poly(ADP-ribose) polymerase activity of PARP-1 and PARP-2,PARP-2,potent and specific inhibitors

# — patent publication US8143241B2, “DNA damage repair inhibitors for treatment of cancer” (Kudos Pharmaceuticals Limited, priority 2003, dated 2012)
